In patent publication US20260242419A1, “A CYCLIC PEPTIDE FOR TRAPPING INTERLEUKIN-1 BETA” (Merck Sharp & Dohme LLC, priority 2023, published 2026):
Like-named read-outs stand apart in the source and are kept apart here. Starred links: 1 amine or outer side, 2 acyl side, 3 side chain; linkers in the order of their positions; H or OH if unused. Non-standard residues stand in square brackets, D forms with d. Residues, ends and D or L forms follow the SMILES beside them. *: point of attachment. Trp(βS-Me,4-F) = C[C@@H](c1c[nH]c2cccc(F)c12)[C@H](N)C(=O)O; Bip(4'-COOH) = N[C@@H](Cc1ccc(-c2ccc(C(=O)O)cc2)cc1)C(=O)O; Trp(4-Cl) = N[C@@H](Cc1c[nH]c2cccc(Cl)c12)C(=O)O; X4 = O=C([C@H]1[C@@H](Cc2ccncc2)CCN1[*:1])[*:2]; Ala(pyrimidin-5-yl) = N[C@@H](Cc1cncnc1)C(=O)O; Phe(4-COOH) = N[C@@H](Cc1ccc(C(=O)O)cc1)C(=O)O; Pro(cis-4-F) = O=C(O)[C@@H]1C[C@H](F)CN1; Dap(CONH2) = NC(=O)NC[C@H](N)C(=O)O; d(αMeD) = C[C@@](N)(CC(=O)O)C(=O)O; 4Pal = N[C@@H](Cc1ccncc1)C(=O)O; Dab = NCC[C@H](N)C(=O)O; Aib = CC(C)(N)C(=O)O; Bn = c1ccc(C*)cc1

Target: T1, IL-1β (Homo sapiens, UniProt P01584)
T1 construct: purchased BioLegend 579404
T1 sequence (P01584 117-269): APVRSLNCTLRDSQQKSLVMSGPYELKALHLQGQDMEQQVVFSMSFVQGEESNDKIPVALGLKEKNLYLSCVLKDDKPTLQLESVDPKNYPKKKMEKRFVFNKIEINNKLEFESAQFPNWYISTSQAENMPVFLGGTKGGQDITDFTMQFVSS
Assay: IL-6 assay in MRC5 cells: inhibition of IL-1β induced IL-6 secretion (AlphaLISA)
Format: cell-based
Settings: inhibition of IL-1β induced IL-6 secretion in MRC5 cells, read-out: MRC5 IC50
Summary of the method: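 Compound was pre-incubated 1 h at ambient temperature with recombinant human IL-1β at 2λ EC80 before adding human lung fibroblast MRC5 cells (3000/well) in EMEM with 0.025% BSA. After overnight culture at 37 °C, 5% CO2, secreted IL-6 in conditioned medium was measured by AlphaLISA; IC50 from 4-parameter logistic fits.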

IC50 | IC50 (compound pre-incubated 1 hour with recombinant human IL-1β) | Structure (SMILES)
0.019 nM |  | C[C@@H](c1c[nH]c2cccc(F)c12)[C@@H]1NC(=O)[C@@H]2C[C@H](F)CN2C(=O)CNC(=O)[C@H](Cc2ccc(C(=O)O)cc2)NC(=O)[C@H](Cc2ccncc2)NC(=O)[C@H](Cc2ccc(-c3ccc(C(=O)O)cc3)cc2)NC(=O)[C@H]2[C@@H](Cc3ccncc3)CCN2C(=O)CNC(=O)[C@H](CCN)NC(=O)[C@H](CCC(N)=O)NC(=O)[C@H](Cc2cncnc2)NC(=O)[C@@](C)(CC(=O)O)NC(=O)[C@H](Cc2c[nH]c3cccc(Cl)c23)NC(=O)[C@H](CO)NC(=O)C(C)(C)NC1=O [Example 225] (cyclo([Bip(4'-COOH)][4Pal][Phe(4-COOH)]G[Pro(cis-4-F)][Trp(βS-Me,4-F)][Aib]S[Trp(4-Cl)][d(αMeD)][Ala(pyrimidin-5-yl)]Q[Dab]G[X4]))
0.022 nM |  | C[C@@H](c1c[nH]c2cccc(F)c12)[C@@H]1NC(=O)[C@@H]2C[C@H](F)CN2C(=O)CNC(=O)[C@H](Cc2ccc(C(=O)O)cc2)NC(=O)[C@H](Cc2ccncc2)NC(=O)[C@H](Cc2ccc(-c3ccc(C(=O)O)cc3)cc2)NC(=O)[C@H]2[C@@H](Cc3ccncc3)CCN2C(=O)CNC(=O)[C@H](CNC(N)=O)NC(=O)[C@H](CCC(N)=O)NC(=O)[C@H](Cc2cncnc2)NC(=O)[C@@](C)(CC(=O)O)NC(=O)[C@H](Cc2c[nH]c3cccc(Cl)c23)NC(=O)[C@H](CO)NC(=O)C(C)(C)NC1=O [Example 226] (cyclo([Bip(4'-COOH)][4Pal][Phe(4-COOH)]G[Pro(cis-4-F)][Trp(βS-Me,4-F)][Aib]S[Trp(4-Cl)][d(αMeD)][Ala(pyrimidin-5-yl)]Q[Dap(CONH2)]G[X4]))
0.014 nM |  | CO[C@H](C)[C@@H]1NC(=O)[C@@](C)(CC(=O)O)NC(=O)[C@H](Cc2c[nH]c3ccccc23)NC(=O)[C@H](CO)NC(=O)C(C)(C)NC(=O)[C@H]([C@@H](C)c2c[nH]c3cccc(F)c23)NC(=O)[C@@H]2C[C@H](F)CN2C(=O)CNC(=O)[C@H](Cc2ccc(C(=O)O)cc2)NC(=O)[C@H](Cc2ccncc2)NC(=O)[C@H](Cc2ccc(-c3ccc(C(=O)O)cc3)cc2)NC(=O)[C@H]2[C@@H](Cc3ccncc3)CCN2C(=O)CNC(=O)[C@H](CCN)NC(=O)[C@H](CCC(N)=O)NC1=O [Example 227] (cyclo([Bip(4'-COOH)][4Pal][Phe(4-COOH)]G[Pro(cis-4-F)][Trp(βS-Me,4-F)][Aib]SW[d(αMeD)]T(Me)Q[Dab]G[X4]))
0.021 nM |  | CO[C@H](C)[C@@H]1NC(=O)[C@@](C)(CC(=O)O)NC(=O)[C@H](Cc2c[nH]c3ccccc23)NC(=O)[C@H](CO)NC(=O)C(C)(C)NC(=O)[C@H]([C@@H](C)c2c[nH]c3cccc(F)c23)NC(=O)[C@@H]2C[C@H](F)CN2C(=O)CNC(=O)[C@H](Cc2ccc(C(=O)O)cc2)NC(=O)[C@H](Cc2ccncc2)NC(=O)[C@H](Cc2ccc(-c3ccc(C(=O)O)cc3)cc2)NC(=O)[C@H]2[C@@H](Cc3ccncc3)CCN2C(=O)CNC(=O)[C@H](CNC(N)=O)NC(=O)[C@H](CCC(N)=O)NC1=O [Example 228] (cyclo([Bip(4'-COOH)][4Pal][Phe(4-COOH)]G[Pro(cis-4-F)][Trp(βS-Me,4-F)][Aib]SW[d(αMeD)]T(Me)Q[Dap(CONH2)]G[X4]))
 | 0.023 nM | C[C@@H](OCc1ccccc1)[C@@H]1NC(=O)[C@@](C)(CC(=O)O)NC(=O)[C@H](Cc2c[nH]c3ccccc23)NC(=O)[C@H](CO)NC(=O)C(C)(C)NC(=O)[C@H]([C@@H](C)c2c[nH]c3cccc(F)c23)NC(=O)[C@@H]2C[C@H](F)CN2C(=O)CNC(=O)[C@H](Cc2ccc(C(=O)O)cc2)NC(=O)[C@H](Cc2ccncc2)NC(=O)[C@H](Cc2ccc(-c3ccc(C(=O)O)cc3)cc2)NC(=O)[C@H]2[C@@H](Cc3ccncc3)CCN2C(=O)CNC(=O)[C@H](CCN)NC(=O)[C@H](CCC(N)=O)NC1=O [Example 229] (cyclo([Bip(4'-COOH)][4Pal][Phe(4-COOH)]G[Pro(cis-4-F)][Trp(βS-Me,4-F)][Aib]SW[d(αMeD)]T(Bn)Q[Dab]G[X4]))
